The supplement of paper PMC10307832

Legend:
Test in all cases: relative viability (nuclei count vs DMSO), 5 days (fraction); higher = more cells survive
[1] = compound: Cc1ccc(NC(=O)c2ccc(CN3CCN(C)CC3)cc2)cc1Nc1nccc(-c2cccnc2)n1 [Imatinib]
How it was run: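 Five library-drug doses, separated by factors of √10, were pinned into 1536-well plates holding lung cancer cell lines after an overnight stay at 37 °C. Cells were fixed, permeabilised and Hoechst-stained in one step after 5 days without medium change, then imaged at 4×. Viability compares treated-well with vehicle-well nuclei, counted in MetaXpress, as a median across plates. Passing plates had control CV below 25% and at least one doubling.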

[2] = compound: Cc1ccc(NC(=O)c2ccc(CN3CCN(C)CC3)cc2)cc1Nc1nccc(-c2cccnc2)n1 [Imatinib] + C[C@@H](Oc1cc(-c2cnn(C3CCNCC3)c2)cnc1N)c1c(Cl)ccc(F)c1Cl [Crizotinib] (partner 1 µM)
How it was run: (§1)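 For relative viability, nuclei counts in treated wells were divided by those in vehicle wells. Lung cancer cell lines had been pin-tool dosed in 1536-well plates the day after seeding and cultured for 5 days, then fixed and stained in one step (final 0.05% Triton X-100, 1% formaldehyde, 1 ug/ml Hoechst) and imaged at 4×. Doses were one drug alone or a fixed anchor-drug dose plus five library-drug doses (not always all listed) in √10 steps, and values are duplicate-plate medians.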

[3] = compound: Cc1ccc(NC(=O)c2ccc(CN3CCN(C)CC3)cc2)cc1Nc1nccc(-c2cccnc2)n1 [Imatinib] + Nc1ncn([C@H]2C[C@H](O)[C@@H](CO)O2)c(=O)n1 [Decitabine] (partner 2 µM)
How it was run: as §1

[4] = compound: Cc1ccc(NC(=O)c2ccc(CN3CCN(C)CC3)cc2)cc1Nc1nccc(-c2cccnc2)n1 [Imatinib] + O=C(c1cc(Cc2n[nH]c(=O)c3ccccc23)ccc1F)N1CCN(C(=O)C2CC2)CC1 [Olaparib] (partner 8 µM)
How it was run: as §1

Cell Line | relative viability ([1]; 0.02 µM) | relative viability ([1]; 0.2 µM) | relative viability ([1]; 0.6325 µM) | relative viability ([1]; 2 µM) | relative viability ([2]; first compound 0.02 µM) | relative viability ([2]; first compound 0.2 µM) | relative viability ([2]; first compound 0.6325 µM) | relative viability ([2]; first compound 2 µM) | relative viability ([3]; first compound 0.02 µM) | relative viability ([3]; first compound 0.2 µM) | relative viability ([3]; first compound 0.6325 µM) | relative viability ([3]; first compound 2 µM) | relative viability ([4]; first compound 0.02 µM) | relative viability ([4]; first compound 0.2 µM) | relative viability ([4]; first compound 0.6325 µM) | relative viability ([4]; first compound 2 µM) | relative viability ([1]; 0.06325 µM) | relative viability ([3]; first compound 0.06325 µM) | relative viability ([4]; first compound 0.06325 µM) | relative viability ([2]; first compound 0.06325 µM)
NCI-H1915 | 1.09 | 1.02 | 1.03 | 0.967 | 0.905 | 1.03 | 0.885 | 0.897 | 0.257 | 0.281 | 0.276 | 0.243 | 0.237 | 0.253 | 0.26 | 0.234 |  |  |  | 
NCI-H1944 | 0.974 | 0.977 | 0.969 | 0.951 | 1.24 |  | 0.935 |  | 0.427 | 0.474 | 0.401 | 0.444 | 0.448 | 0.414 | 0.394 | 0.459 | 0.706 | 0.394 | 0.337 | 
NCI-H1975 | 1.04 | 0.94 | 0.964 | 0.94 | 1.1 | 1.1 | 0.916 | 1.07 | 0.365 | 0.369 | 0.38 | 0.365 | 0.756 | 0.947 | 0.803 | 0.712 | 0.951 | 0.373 | 0.815 | 1.16
NCI-H1993 | 0.89 | 1.08 | 0.886 | 0.925 |  |  | 0.927 | 0.815 | 0.629 | 0.662 | 0.643 | 0.528 | 1.15 | 1.16 | 0.968 | 0.983 | 0.8 | 0.718 | 1.04 | 0.905
NCI-H2009 | 1.08 | 1.09 | 1.05 | 0.977 | 1.09 | 0.975 | 1.02 | 1.04 | 0.434 | 0.346 | 0.425 | 0.363 | 0.692 | 0.796 | 0.671 | 0.661 | 0.728 | 0.346 | 0.882 | 1.23
NCI-H2023 | 1.06 | 1.14 |  | 0.985 | 0.61 | 0.715 | 0.616 | 0.706 | 0.228 | 0.24 | 0.22 | 0.223 | 0.552 | 0.45 | 0.62 | 0.408 | 0.78 | 0.252 | 0.472 | 0.708
NCI-H2085 |  | 1.01 | 1.04 | 1.02 | 0.826 | 0.903 | 0.839 | 0.841 | 0.529 | 0.513 | 0.61 | 0.527 | 0.765 | 0.825 | 0.784 | 0.742 | 0.826 | 0.556 | 0.759 | 0.891
NCI-H2087 | 1.11 | 1.13 | 1.16 |  | 0.894 | 0.943 | 0.941 | 0.718 | 0.291 | 0.251 | 0.283 |  | 0.63 | 0.619 | 0.595 |  |  |  |  | 0.983
NCI-H2126 | 1.02 | 1.08 | 0.955 | 0.936 | 1.04 | 1.05 | 1 | 0.984 | 0.545 | 0.634 | 0.58 | 0.538 | 0.892 | 0.92 | 0.985 | 0.924 | 0.696 | 0.522 | 0.742 | 
